Laboratory results reported in publication PMC9137037 (Frontiers in Oncology, 2022).
Where no end group is shown, it is not given here.

System: CT26 colon carcinoma cells
Assay: CT26 tumor challenge in immunized syngeneic BALB/c mice
Format: in vivo, mouse
Method: The peptide vaccine MVF-PD-1(92-110) was dissolved in sterile water and mixed with either ISA 720 or ISA 51 (1:1) ratio. We utilized the well-established murine colon carcinoma cell line CT26 tumor model in syngeneic BALB/c mice to evaluate the effects of vaccination previously described ([23]). Briefly, 6–8-week-old female BALB/c mice were immunized with the peptide vaccine, and 2 weeks after the third immunization, the mice were challenged with 1×10^5 CT26 colon cancer cells by subcutaneous injection (SC). The CT26 cancer cell line was maintained in the DMEM medium with 10% FBS 5% CO2 at 37 °C. Phosphate-buffered saline (PBS)-treated mice were set as negative control, while the positive control group mice were treated with an anti-mouse PD-1 monoclonal antibody (clone 29F.1A12; Bio X Cell, West Lebanon, NH, USA) with 200 μg/dose per mouse. Blood was collected biweekly after the primary immunization until 2 weeks after the third immunization. Tumor growth was monitored daily, especially 7 days after the tumor challenge. The mice were euthanized at the end of treatment, and the tumors were extracted and weighed.
The mice in PBS and mAb (29F.1A12) groups, n = 10; group 1 to group 7, n = 8, group 8 n = 7 (one mouse was lost due to a non-immunization related reason before the challenge).
The mice challenged with CT26 tumor cells were monitored at least twice per week and tumor sizes were measured by calipers. The formula, volume (LWW) = (length × width × width)/2, was used to calculate tumor volumes. All values are shown as means ± standard deviation. Data statistical analysis was performed by GraphPad Prism 8.1.2 (GraphPad Software, Inc. San Diego, CA, USA) and the indicated statistical analysis. The percentage of tumor growth inhibition (%TGI) was defined as the difference between the median tumor volume (MTV) of the treatment group with the PBS control group, and the value was calculated by the following formula: %TGI=100*(MTV control − MTV test)/MTV control. The percentage of complete response (CR) was defined as the tumor volume equal to or less than 50 mm^3 for at least 3 consecutive measurements during the study. The log-rank (Mantel−Cox) test was used to compare the percentage of CR in multiple groups. Student’s t-test was used to analyze the difference between the two groups. One-way analysis of variance (one-way ANOVA) followed by the Tukey’s multiple comparison test were used to compare data in multiple groups or data between groups in multiple groups, and the two-way ANOVA was used to analyze the whole curve comparison. The log-rank (Mantel−Cox) test was use to compare the survival curves. A p-value or an adjusted p-value less than 0.05 was accepted as a statistically significant difference.
To verify and confirm the previous immunogenicity studies and antitumor activities of PD-1(92-110) ([23]), 6–8-week-old BALB/c mice were vaccinated with MVF-PD-1(92-110) every 2- or 3- week intervals. Peptide cancer vaccine (100 μg) mixed with ISA 720 (1:1) or ISA 51 (1:1) or nor-MDP 33 μg were used per mice. Mice were boosted with the designed doses of vaccine every 2- or 3-week intervals for a total of 3 vaccine shots. Blood was collected weekly for monitoring antibody titers. After 2 weeks of the third immunization (3Y), mice were challenged with CT26 colon carcinoma cells for 1×10^5 cells per mouse. The tumor growths were monitored and checked daily, especially 7 days post-challenge, and the tumor size was measured with calipers ( Figure 1A ). For the positive control group, we treated the mice with an anti-mouse PD-1 antibody (clone 29F.1A12) twice a week for up to three weeks, while the negative control group was treated with PBS. The mice CT26 tumor model study was separated into 10 different groups, post-challenge treated with PBS as the negative control group or an anti-mouse PD-1 antibody (clone 29F.1A12) as positive control group ( Figure 1B ). Group 1 to group 8 comprised the peptide vaccine treatment groups. […]

Sequence: KLLSLIKGVIVHRLEGVEGPSLGAISLAPKAQIKESLRAEL [MVF-PD-1(92-110)]
- percentage of complete response (CR) (CR = tumor volume ≤50 mm^3 for at least 3 consecutive measurements, combined immunized groups vs PBS and mAb 29F.1A12, log-rank): higher percentage of complete response
- tumor burden vs PBS and vs 29F.1A12 (summary) (mouse, CT26, Figures 2G, H): PD-1(92) significant less tumor burden vs. PBS, no difference vs. 29F.1A12 ( Figures 2G, H );
- 2-week vs. 3-week immunization interval (summary) (mouse, CT26, Figures 2G-I): 2-week vs. 3-week no difference ( Figures 2G-I );
- ISA 720 vs ISA 51 (summary) (mouse, CT26, Figures 2G-I): ISA 720 vs ISA 51 no difference ( Figures 2G-I );
- No nor-MDP vs nor-MDP (summary) (mouse, CT26, Figures 2G-I): No nor-MDP vs nor-MDP no difference ( Figures 2G-I );
- tumor size (LWW) versus the PBS group (two-way ANOVA of whole-curve comparison, p-value less than 0.01, majority of the mice): significantly inhibited
